Measured values published in PubChem BioAssay (NCI).
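All cell lines were grown in 96-well plates and treated with compound for 48 hours. GI50 = concentration required for 50% inhibition of growth. TGI: concentration producing complete growth inhibition.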

Assays:
Assay in all cases: NCI anticancer screen, dose series, 48 h
DMS 114 small cell lung = test system: DMS 114 small cell lung
RXF-631 renal = test system: RXF-631 renal
SNB-78 CNS = test system: SNB-78 CNS
KM20L2 colon = test system: KM20L2 colon
HOP-18 NSCLC = test system: HOP-18 NSCLC
DLD-1 colon = test system: DLD-1 colon
M19-MEL melanoma = test system: M19-MEL melanoma
DMS 273 small cell lung = test system: DMS 273 small cell lung
MDA-N = test system: MDA-N

Row | SMILES | TGI (DMS 114 small cell lung) [µM] | TGI (RXF-631 renal) [µM] | TGI (SNB-78 CNS) [µM] | TGI (KM20L2 colon) [µM] | TGI (HOP-18 NSCLC) [µM] | TGI (DLD-1 colon) [µM] | TGI (M19-MEL melanoma) [µM] | TGI (DMS 273 small cell lung) [µM] | TGI (MDA-N) | other results
1 | CC(=O)OC1CCn2nnc(COC(=O)NC(C)C)c21 (stereo not given) | > 100 | > 100 | > 100 | > 100 | > 100 | > 100 | – | – | – | –
2 | COc1ccc(C(c2ccc(C(C)C)cc(=O)c2O)c2c(O)cc3oc(-c4ccccc4)cc(=O)c3c2O)cc1 (stereo not given) | – | > 100 | > 100 | > 100 | 80.4 | > 100 | 26.7 | 22 | – | –
3 | O=c1c2ccc3cccc4c(=O)cc(c5ccccc15)-c2c34 | > 100 | – | – | > 100 | > 100 | > 100 | 54 | > 100 | – | –
4 | Cc1c(C(=O)/C=C/c2ccc(Cl)cc2)[n+](=O)c2ccccc2n1[O-] | 15.1 | > 100 | > 100 | 21.4 | 57.7 | 20.4 | 30 | 25.4 | – | –
5 | COc1ccc(C(O)CNC(=O)c2ccccc2)cc1 (stereo not given) | – | – | – | – | – | – | – | – | > 100 µM | –
6 | CCCCCCCCCCCC(=O)OCC1OC(n2cc(F)c(=O)[nH]c2=O)C(N)C(OC(=O)CCCCCCCCCCC)C1O (stereo not given) | > 100 | – | > 100 | > 100 | – | – | > 100 | > 100 | – | –
7 | CCCNCc1nc2ccc(Br)cc2c(=O)n1CCC | 22.9 | 19 | 40.6 | 34.3 | 32.1 | 21.7 | 26.1 | 25.2 | – | –
8 | O=c1ccccc2cccc(O)c12 | > 100 | > 100 | > 100 | > 100 | > 100 | > 100 | > 100 | > 100 | – | –
9 | O=C1OC(c2ccc(O)c(-c3ccccc3)c2)(c2ccc(O)c(-c3ccccc3)c2)c2c(Cl)c(Cl)c(Cl)c(Cl)c21 | – | – | – | – | – | – | – | – | > 100 µM | –
10 | CCC[CH2][Sn]([CH2]CCC)([O]C(=O)c1cccc(F)c1)[O]C(=O)c1cccc(F)c1 | 1.63 | 0.486 | 2.27 | 2.91 | – | 2.32 | 1.93 | 3.4 | – | GI50 (M19-MEL melanoma): 0.575 µM; GI50 (DMS 114 small cell lung): 0.376 µM; GI50 (DMS 273 small cell lung): 1.39 µM; GI50 (RXF-631 renal): 0.209 µM; GI50 (SNB-78 CNS): 0.702 µM; GI50 (KM20L2 colon): 1.47 µM; GI50 (DLD-1 colon): 1.11 µM
11 | COC(=O)c1ccccc1NC(=O)/C(=N\NC(C)(C)C)C(C#N)c1nc(-c2ccc([N+](=O)[O-])cc2)cs1 (stereo not given) | – | – | – | – | – | – | – | – | > 100 µM | –
12 | CO[C@@H]1[C@@H](OC2OC(C)C(OC3CC(C)(O)C(OC(=O)CC(C)C)C(C)O3)C(N(C)C)C2O)[C@@H](CC=O)C[C@@H](C)C(=O)/C=C/C2O[C@H]2C[C@@H](C)OC(=O)C[C@H]1OC(C)=O (stereo not given in full) | – | – | – | – | – | – | – | – | 29.8 µM | –
13 | Cc1ccc(NC(=O)/C(CC(=O)c2c[n+](=O)c3ccccc3n2O)=N\NC(=O)C[n+]2ccccc2)cc1 | > 100 | > 100 | > 100 | > 100 | > 100 | > 100 | > 100 | > 100 | – | –
14 | CC(=O)OC12c3ccccc3C1CCCCCC21OCCCO1 (stereo not given) | > 100 | – | > 100 | > 100 | – | > 100 | > 100 | > 100 | – | –
15 | N=C(N)SCCc1cn2ccccc2n1 | > 100 | – | > 100 | – | > 100 | > 100 | > 100 | > 100 | – | –
16 | CCCCCCCCCCCCCCCC(=O)OCC(O)C1OC(=O)C(O)=C1O (stereo not given) | – | – | – | – | – | – | – | – | 94.6 µM | –
17 | O=C1CCCC/C1=C/C=C/c1ccccc1 | – | > 100 | – | > 100 | > 100 | > 100 | > 100 | – | – | –
18 | CC(=O)O[C@@H]1CO[C@H]2O[C@H]3[C@@H](C(C=O)=C[C@H](O)[C@@H]4C5=C(C(C)C)CC[C@]5(C)CC[C@@]34C)[C@@]2(O)C1=O | – | – | – | – | – | – | – | – | 0.415 µM | –
19 | O=C1C=C(Nc2ccccc2C(=O)CC(=O)C(=O)Nc2cccc(C(F)(F)F)c2)c2ccccc2C1=O | 35.1 | > 100 | > 100 | > 100 | 40.6 | > 37.6 | 8.48 | > 94.4 | 26.7 µM | –
20 | COc1ccc2c3c1C(=O)CCC3CO2 (stereo not given) | > 100 | > 100 | > 100 | > 100 | – | > 100 | > 100 | > 100 | – | –
21 | CCc1c2c(nc3cc4c(cc13)OCO4)-c1cc3c(c(=O)n1C2)COC(=O)[C@@]3(CC)OC(=O)CN | – | – | – | – | – | – | – | – | 2.18 µM | GI50 (MDA-N): < 0.01 µM
22 | [Cu+2].[O-]c1ccc2ccccc2c1N=Nc1ccccc1.[O-]c1ccc2ccccc2c1N=Nc1ccccc1 | – | – | – | – | – | – | – | – | > 100 µM | –
23 | C=C1CC(CCCl)(c2ccccc2)OC1=O (stereo not given) | > 63.2 | > 62.8 | > 81.8 | > 100 | > 59.3 | 42.5 | > 54.9 | > 100 | – | –

Row | SMILES | TGI (DMS 114 small cell lung) [µM] | TGI (RXF-631 renal) [µM] | TGI (SNB-78 CNS) [µM] | TGI (KM20L2 colon) [µM] | TGI (HOP-18 NSCLC) [µM] | TGI (DLD-1 colon) [µM] | TGI (M19-MEL melanoma) [µM] | TGI (DMS 273 small cell lung) [µM] | TGI (MDA-N) | other results
24 | O=C(O)/C(=C/c1ccccc1[N+](=O)[O-])c1ccccc1 | > 100 | > 100 | > 100 | > 100 | – | > 100 | > 100 | > 100 | – | –
25 | CC(C)=CCc1c(O)cc(/C=C/c2cc(O)c3c(c2)C[C@@H]2C(C)(C)[C@H](O)[C@H](O)C[C@@]2(C)O3)cc1O | – | – | – | – | – | – | – | – | > 10 µM | GI50 (MDA-N): 1.27 µM
26 | N=C(c1ccccc1)N(O)C1CCCCC1 | > 100 | – | > 100 | > 100 | > 100 | > 100 | > 100 | > 100 | – | –
27 | CN(C)CCn1c2ccccc2c2nc3cc4ccccc4cc3nc21 | 20.7 | – | – | 15.6 | – | 16.5 | 21 | 14.6 | – | –
28 | O=c1/c(=C/c2ccc(Cl)cc2Cl)sc2nc3ccccc3n12 | > 100 | > 100 | > 100 | > 100 | > 100 | > 100 | > 100 | > 100 | – | –
29 | CC(=O)N1CC2Nc3ccccc3C2CC1CO (stereo not given) | > 100 | > 100 | > 100 | > 100 | – | > 100 | > 100 | > 100 | – | –
30 | O=C1Nc2ccccc2C1Cc1ccccc1 (stereo not given) | – | – | – | – | – | – | – | – | > 100 µM | –
31 | O=[N+]([O-])c1ccccc1N=Nc1c(O)[nH]c2ccccc12 | – | – | – | – | – | – | – | – | > 100 µM | –
32 | COc1cc2c(c(OC)c1OC)-c1[nH]ncc1CC2 | > 100 | – | > 100 | > 100 | > 100 | > 100 | > 100 | > 100 | – | –
33 | Cn1c(CCC#N)nc2ccc(Br)cc2c1=O | > 100 | > 100 | – | > 100 | – | > 100 | – | – | – | –
34 | O=S1(=O)CCN(Cc2ccccn2)CC1 | – | – | – | – | – | – | – | – | > 100 µM | –
35 | CCOC(=O)CC1(O)C=CC(=O)C=C1 | – | – | – | – | – | – | – | – | 7.25 µg/mL | GI50 (MDA-N): 2.83 µg/mL
36 | CC(C)C(=O)N[C@@H](C)C(=O)N(Cc1ccc2ccccc2c1)N=O | > 100 | – | > 100 | > 100 | 0.0979 | > 100 | > 100 | > 100 | – | –
37 | Nc1ccc(Nc2nc(F)nc(-c3c4ccccc4c4n3CCS4)n2)cc1 | 37.7 | 32.3 | > 100 | 33.5 | 33.9 | 34.8 | 40.5 | 24 | – | –
38 | C(=C\c1csnn1)/c1cccnc1 | > 100 | > 100 | > 100 | > 100 | > 100 | > 100 | > 100 | – | – | –
39 | O=C(O)C1C2CC3C(OC(=O)C31)C2Br (stereo not given) | – | – | – | – | – | – | – | – | > 100 µM | –
40 | CC1=CC(C)(C)N=C2SC(c3ccc(Cl)cc3)=NN12 | > 100 | – | > 100 | > 100 | 80.5 | 58.1 | > 100 | > 100 | – | –
41 | O=c1cc(Cl)nc[nH]1 | > 100 | > 100 | > 100 | > 100 | > 100 | > 100 | > 100 | > 100 | – | –
42 | CCOC(=O)/N=C(\N)SCc1ccccc1 | > 100 | > 100 | > 100 | > 100 | > 100 | > 100 | > 100 | > 100 | – | –
43 | COc1cc(-c2[nH]ccc2Cl)oc1C1=C2N=C3C=C2C(C(C)C)C1CCCCCCCC3 (stereo not given) | 1.87 | – | 15.5 | 1.48 | 2.08 | 2.6 | 1.59 | 1.48 | 1.75 µM | –
44 | O=C(CCC(=O)Nc1ccc(Cl)cc1)CC(=O)c1ccc(F)cc1 | – | – | > 100 | > 100 | – | > 100 | – | > 100 | – | –
45 | O=C(Nc1c(-c2nc3ccccc3[nH]2)sc(=S)n1-c1ccccc1)c1ccccc1 | > 100 | > 100 | > 100 | – | > 100 | > 100 | > 100 | > 100 | – | –
46 | O=Cc1ccc(-c2ccc(-c3ccc(C=O)s3)o2)s1 | > 100 | – | > 100 | > 100 | > 100 | > 100 | > 100 | > 100 | > 100 µM | –
